Consider 69 molecules from patent US20020026053A1, “Novel 3-(substituted) -2- indolinones compounds and use thereof as inhibitors of protein kinase activity” (priority 1997, published 2002).

T1 sequence (P08581 with tags, fused parts or gaps): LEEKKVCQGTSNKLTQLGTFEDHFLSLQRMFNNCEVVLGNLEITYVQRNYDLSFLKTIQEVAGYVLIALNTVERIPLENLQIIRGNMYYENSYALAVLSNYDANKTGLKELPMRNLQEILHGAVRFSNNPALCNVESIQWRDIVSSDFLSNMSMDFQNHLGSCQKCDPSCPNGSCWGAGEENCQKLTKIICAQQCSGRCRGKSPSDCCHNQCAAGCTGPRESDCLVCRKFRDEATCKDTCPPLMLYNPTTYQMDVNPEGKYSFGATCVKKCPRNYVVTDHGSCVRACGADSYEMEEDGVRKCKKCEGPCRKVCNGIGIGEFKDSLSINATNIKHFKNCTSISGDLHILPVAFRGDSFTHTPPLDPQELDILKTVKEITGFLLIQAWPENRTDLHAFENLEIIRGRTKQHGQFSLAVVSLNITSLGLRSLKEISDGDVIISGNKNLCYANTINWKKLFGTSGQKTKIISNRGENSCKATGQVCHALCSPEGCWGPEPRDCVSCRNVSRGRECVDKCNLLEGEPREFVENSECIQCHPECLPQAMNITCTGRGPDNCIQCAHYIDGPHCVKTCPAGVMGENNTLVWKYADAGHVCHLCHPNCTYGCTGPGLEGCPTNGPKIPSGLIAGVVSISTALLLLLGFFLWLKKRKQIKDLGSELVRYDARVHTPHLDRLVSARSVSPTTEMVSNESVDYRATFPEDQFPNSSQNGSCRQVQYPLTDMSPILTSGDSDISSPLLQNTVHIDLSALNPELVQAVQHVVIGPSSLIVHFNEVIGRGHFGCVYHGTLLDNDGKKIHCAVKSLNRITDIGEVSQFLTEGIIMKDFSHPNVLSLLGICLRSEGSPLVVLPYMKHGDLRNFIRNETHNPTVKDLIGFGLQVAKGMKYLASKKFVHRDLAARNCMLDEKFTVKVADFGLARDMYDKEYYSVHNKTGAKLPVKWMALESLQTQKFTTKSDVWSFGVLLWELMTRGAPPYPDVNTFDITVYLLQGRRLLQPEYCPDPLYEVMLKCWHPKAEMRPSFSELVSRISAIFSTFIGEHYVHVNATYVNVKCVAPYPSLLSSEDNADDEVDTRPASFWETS

The assay has as its target T1, Met receptor (EGFR/Met chimeric cells, EMR) (Homo sapiens, UniProt P08581).
T1 construct: expressed in transfected cells; the other entry of the earlier key: EGFR (P00533, Epidermal growth factor receptor)
As to the kind of experiment: Met Autophosphorylation Assay. The note with it: protocol P.130. The class given is biochemical. The procedure, abridged: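 Transiently transfected EGFR/Met chimeric (EMR) cells were lysed in HNTG with 1 mM PMSF. Met was captured on plates coated with goat anti-rabbit IgG, then rabbit anti-Met (C-28), using 90 μg lysate/100 μl for 60 min at room temperature. Phosphotyrosine was read by ELISA.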
For the molecule `O=C1Nc2ccc(S(=O)(=O)N3CCOCC3)cc2C1=Cc1ccc(Cl)c(Cl)c1` [10738/F08], the “Met Kinase % Inhibition (P.130)” value is 60.5%.
The figure for `CNS(=O)(=O)c1ccc2c(c1)C(=Cc1ccccc1OC)C(=O)N2` [10738/D09] is 22.7%; for `Cc1ccc(Oc2cccc(C=C3C(=O)Nc4c(Br)cc(Br)cc43)c2)cc1` [10738/A02] it is 10.0%.
Consider `Cc1c(Br)ccc2c1C(=Cc1ccc(Cl)c(Cl)c1)C(=O)N2` [10738/C08], for which the “Met Kinase % Inhibition (P.130)” value worked out at 39.5%.
The figure for `Cc1ccc(C)c(C=C2C(=O)Nc3c(Br)cc(Br)c(C)c32)c1` [10737/H07] is 51.8%; for `O=C1Nc2ccc(S(=O)(=O)Nc3ccc(C(F)(F)F)cc3)cc2C1=Cc1cccc(Oc2ccc(Cl)c(Cl)c2)c1` [10738/E03] it is 21.1%.
Consider `O=C1Nc2ccc(I)cc2C1=Cc1ccc(Cl)c(Cl)c1` [10738/B08], for which the “Met Kinase % Inhibition (P.130)” value came to 70.9%.
For `Cc1c(Br)ccc2c1C(=Cc1cc(O)ccc1[N+](=O)[O-])C(=O)N2` [10738/C05], the “Met Kinase % Inhibition (P.130)” value came to 34.2%.
In the case of `Cc1ccc(Oc2cccc(C=C3C(=O)Nc4ccc(I)cc43)c2)cc1` [10738/B02], the “Met Kinase % Inhibition (P.130)” value stood at 78.7%.
The figure for `O=C1Nc2ccc(I)cc2C1=Cc1cccc(Oc2ccc(Cl)c(Cl)c2)c1` [10738/B03] is 74.0%; for `CC(C)c1ccc(C=C2C(=O)Nc3ccc(CCCl)cc32)cc1` [10738/G10] it is 12.5%.
For the molecule `O=C1Nc2ccc(CCCl)cc2C1=Cc1ccc(Cl)c(Cl)c1` [10738/G08], the “Met Kinase % Inhibition (P.130)” value is reported as 36.8%.
In the case of `O=C1Nc2ccc(CCCl)cc2C1=Cc1cccc(O)c1O` [10738/G06] it was 86.5%; in that of `CNS(=O)(=O)c1ccc2c(c1)C(=Cc1ccc(Cl)c(Cl)c1)C(=O)N2` [10738/D08], 37.7%.
As for `O=C1Nc2ccc(S(=O)(=O)N3CCOCC3)cc2C1=Cc1cc(O)cc(O)c1` [10738/F07], the “Met Kinase % Inhibition (P.130)” value is 52.3%.
In the case of `CCCOc1ccc(C=C2C(=O)Nc3c(Br)cc(Br)cc32)cc1` [10738/A11] it was 41.7%; in that of `Cc1ccc(Oc2cccc(C=C3C(=O)Nc4ccc(S(=O)(=O)N5CCOCC5)cc43)c2)cc1` [10738/F02], 66.1%; in that of `CC(C)c1ccc(C=C2C(=O)Nc3ccc(S(=O)(=O)Nc4ccc(C(F)(F)F)cc4)cc32)cc1` [10738/E10], 5.8%.
In the case of `Cc1c(Br)cc(Br)c2c1C(=Cc1cccc(O)c1O)C(=O)N2` [10738/H06] it was 93.8%.
The figure for `O=C1Nc2ccc(CCCl)cc2C1=Cc1cc(O)cc(O)c1` [10738/G07] is 40.4%; for `Cc1c(Br)ccc2c1C(=Cc1cc(O)cc(O)c1)C(=O)N2` [10738/C07] it is 51.2%; for `COc1ccccc1C=C1C(=O)Nc2ccc(I)cc21` [10738/B09] it is 79.4%.
On to `Cc1ccc(Oc2cccc(C=C3C(=O)Nc4ccc(Br)c(C)c43)c2)cc1` [10738/C02], for which the “Met Kinase % Inhibition (P.130)” value was 4.3%.
In the case of `O=C1Nc2ccc(S(=O)(=O)Nc3ccc(C(F)(F)F)cc3)cc2C1=Cc1cc(O)cc(O)c1` [10738/E07] it was 89.3%; in that of `Cc1c(Br)cc(Br)c2c1C(=Cc1cc(O)ccc1[N+](=O)[O-])C(=O)N2` [10738/H05], 73.6%.
The figure for `CC(C)c1ccc(C=C2C(=O)Nc3ccc(S(=O)(=O)N4CCOCC4)cc32)cc1` [10738/F10] is 47.9%.
For `Cc1c(Br)cc(Br)c2c1C(=Cc1cccc(Oc3ccc(Cl)c(Cl)c3)c1)C(=O)N2` [10738/H03], the “Met Kinase % Inhibition (P.130)” value came out at 29.5%.
With `CCCOc1ccc(C=C2C(=O)Nc3ccc(I)cc32)cc1` [10738/B11], the “Met Kinase % Inhibition (P.130)” value was determined as 75.4%.
The figure for `CCCOc1ccc(C=C2C(=O)Nc3ccc(S(=O)(=O)N4CCOCC4)cc32)cc1` [10738/F11] is 52.6%; for `O=C1Nc2ccc(S(=O)(=O)N3CCOCC3)cc2C1=Cc1cccc(Oc2ccc(Cl)c(Cl)c2)c1` [10738/F03] it is 20.0%.
For the molecule `O=C1Nc2c(Br)cc(Br)cc2C1=Cc1cc(O)ccc1[N+](=O)[O-]` [10738/A05], the “Met Kinase % Inhibition (P.130)” value was determined as 33.1%.
Regarding `CCCOc1ccc(C=C2C(=O)Nc3ccc(CCCl)cc32)cc1` [10738/G11], the “Met Kinase % Inhibition (P.130)” value is on record as 22.2%.
The figure for `Cc1c(Br)cc(Br)c2c1C(=Cc1ccc(Oc3ccccc3)cc1)C(=O)N2` [10737/H09] is 38.1%; for `COc1ccc(C=C2C(=O)Nc3ccc(S(=O)(=O)N4CCOCC4)cc32)cc1O` [10738/F04] it is 61.4%.
The figure for `CNS(=O)(=O)c1ccc2c(c1)C(=Cc1ccc(OC)c(O)c1)C(=O)N2` [10738/D04] is 32.2%.
`Cc1c(Br)ccc2c1C(=Cc1ccc(C(C)C)cc1)C(=O)N2` [10738/C10]: the “Met Kinase % Inhibition (P.130)” value was 3.2%.
The figure for `Cc1c(Br)cc(Br)c2c1C(=Cc1cccc(Oc3ccc(C(C)(C)C)cc3)c1)C(=O)N2` [10737/H10] is 51.6%; for `CCCOc1ccc(C=C2C(=O)Nc3ccc(S(=O)(=O)NC)cc32)cc1` [10738/D11] it is 4.3%.
In the case of `CC(C)c1ccc(C=C2C(=O)Nc3c(Br)cc(Br)cc32)cc1` [10738/A10] it was 35.7%; in that of `CCCOc1ccc(C=C2C(=O)Nc3ccc(S(=O)(=O)Nc4ccc(C(F)(F)F)cc4)cc32)cc1` [10738/E11], 11.8%; in that of `CNS(=O)(=O)c1ccc2c(c1)C(=Cc1ccc(C(C)C)cc1)C(=O)N2` [10738/D10], 25.3%.
The figure for `O=C1Nc2ccc(S(=O)(=O)Nc3ccc(C(F)(F)F)cc3)cc2C1=Cc1cccc(O)c1O` [10738/E06] is 92.4%; for `CCCOc1ccc(C=C2C(=O)Nc3ccc(Br)c(C)c32)cc1` [10738/C11] it is 12.0%.
Regarding `COc1ccccc1C=C1C(=O)Nc2ccc(S(=O)(=O)Nc3ccc(C(F)(F)F)cc3)cc21` [10738/E09], the “Met Kinase % Inhibition (P.130)” value is 18.0%.
Regarding `Cc1c(Br)ccc2c1C(=Cc1cccc(Oc3ccc(Cl)c(Cl)c3)c1)C(=O)N2` [10738/C03], the “Met Kinase % Inhibition (P.130)” value is recorded as 22.7%.
In the case of `COc1ccc(C=C2C(=O)Nc3c(Br)cc(Br)cc32)cc1O` [10738/A04] it was 55.9%; in that of `COc1ccc(C=C2C(=O)Nc3ccc(I)cc32)cc1O` [10738/B04], 70.7%; in that of `CNS(=O)(=O)c1ccc2c(c1)C(=Cc1cccc(Oc3ccc(C)cc3)c1)C(=O)N2` [10738/D02], 15.6%.
In the case of `O=C1Nc2c(Br)cc(Br)cc2C1=Cc1cc(O)cc(O)c1` [10738/A07] it was 72.7%; in that of `COc1ccc(C=C2C(=O)Nc3ccc(S(=O)(=O)Nc4ccc(C(F)(F)F)cc4)cc32)cc1O` [10738/E04], 64.1%.
In the case of `COc1ccc(C=C2C(=O)Nc3ccc(Br)c(C)c32)cc1O` [10738/C04] it was 53.7%; in that of `COc1ccccc1C=C1C(=O)Nc2ccc(CCCl)cc21` [10738/G09], 16.9%.
With `Cc1c(Br)cc(Br)c2c1C(=Cc1ccc3ccccc3c1)C(=O)N2` [10737/H08], the “Met Kinase % Inhibition (P.130)” value is recorded as 28.0%.
As to `O=C1Nc2ccc(S(=O)(=O)Nc3ccc(C(F)(F)F)cc3)cc2C1=Cc1cc(O)ccc1[N+](=O)[O-]` [10738/E05], the “Met Kinase % Inhibition (P.130)” value was 61.0%.
Regarding `O=C1Nc2ccc(CCCl)cc2C1=Cc1cc(O)ccc1[N+](=O)[O-]` [10738/G05], the “Met Kinase % Inhibition (P.130)” value was determined as 27.3%.
In the case of `CC(C)c1ccc(C=C2C(=O)Nc3ccc(I)cc32)cc1` [10738/B10] it was 70.7%; in that of `O=C1Nc2ccc(CCCl)cc2C1=Cc1cccc(Oc2ccc(Cl)c(Cl)c2)c1` [10738/G03], 32.8%.
As to `O=C1Nc2ccc(I)cc2C1=Cc1cc(O)ccc1[N+](=O)[O-]` [10738/B05], the “Met Kinase % Inhibition (P.130)” value is 67.6%.
The figure for `O=C1Nc2ccc(S(=O)(=O)N3CCOCC3)cc2C1=Cc1cccc(O)c1O` [10738/F06] is 86.7%.
In the case of `O=C1Nc2ccc(S(=O)(=O)N3CCOCC3)cc2C1=Cc1cc(O)ccc1[N+](=O)[O-]` [10738/F05], the “Met Kinase % Inhibition (P.130)” value was found to be 33.5%.
The figure for `CNS(=O)(=O)c1ccc2c(c1)C(=Cc1cc(O)ccc1[N+](=O)[O-])C(=O)N2` [10738/D05] is 42.4%; for `Cc1ccc(Oc2cccc(C=C3C(=O)Nc4ccc(CCCl)cc43)c2)cc1` [10738/G02] it is 16.9%.
In the case of `O=C1Nc2ccc(S(=O)(=O)Nc3ccc(C(F)(F)F)cc3)cc2C1=Cc1ccc(Cl)c(Cl)c1` [10738/E08] it was 52.6%.
The figure for `O=C1Nc2c(Br)cc(Br)cc2C1=Cc1cccc(Oc2ccc(Cl)c(Cl)c2)c1` [10738/A03] is 20.7%; for `O=C1Nc2c(Br)cc(Br)cc2C1=Cc1cccc(O)c1O` [10738/A06] it is 95.8%.
Consider `O=C1Nc2ccc(I)cc2C1=Cc1cccc(O)c1O` [10738/B06], for which the “Met Kinase % Inhibition (P.130)” value is 83.6%.
In the case of `CNS(=O)(=O)c1ccc2c(c1)C(=Cc1cccc(Oc3ccc(Cl)c(Cl)c3)c1)C(=O)N2` [10738/D03] it was 16.0%.
In the case of `COc1ccccc1C=C1C(=O)Nc2c(Br)cc(Br)cc21` [10738/A09] it was 20.2%.
In the case of `COc1ccc(C=C2C(=O)Nc3c(Br)cc(Br)c(C)c32)cc1O` [10738/H04] it was 72.9%.
